Data from patent publication US20100063026A1, “ANTIBACTERIAL QUINOLINE DERIVATIVES” (priority 2007, published 2010).
≈ marks a conversion by molar mass, not a printed value.

Key:
[1] = system: Staphylococcus aureus (ATCC29213); experiment: Microtitre plate IC90 determination against non-mycobacterial strains: S. aureus; format: cell-based; settings: 90% inhibitory concentration for bacterial growth, 37° C., resazurin fluorescence; for IC90 STA 1 B29213: 24 hours; for IC90: Staphylococcus aureus, ATCC29213, 24 h, read-out: IC90 STA 1 B29213
Experimental: (§1) The bacteria used in this study were grown overnight in flasks containing 100 ml Mueller-Hinton Broth (Becton Dickinson-cat. no. 275730) in sterile de-ionized water, with shaking, at 37° C. Stocks (0.5 ml/tube) were stored at -70° C. until use. Bacteria titrations were performed in microtiter plates to detect the TCID50, in which the TCID50 represents the dilution that gives rise to bacterial growth in 50% of inoculated cultures. In general, an inoculum level of approximately 100 TCID50 was used for susceptibility testing. […] Therefore resazurin (0.6 mg/ml) was added in a volume of 20 μl to all wells 3 hours after inoculation, and the plates were re-incubated overnight. A change in colour from blue to pink indicated the growth of bacteria.

[2] = system: Streptococcus pneumoniae (ATCC6305); experiment: Microtitre plate IC90 determination against non-mycobacterial strains: S. pneumoniae; format: cell-based; settings: 90% inhibitory concentration for bacterial growth, 37° C., resazurin fluorescence; for IC90 SPN 1 6305: 24 hours; for IC90: Streptococcus pneumoniae, ATCC6305, 24 h, read-out: IC90 SPN 1 6305
Experimental: as §1

[3] = system: Mycobacterium tuberculosis (strain H37RV); experiment: In-vitro method for testing compounds against M. tuberculosis; format: cell-based; settings: 90% inhibitory concentration for bacterial growth, 7 days, 37° C., Resazurin fluorescence; for IC90: Mycobacterium tuberculosis, H37RV, 168 h, read-out: IC90 MTB 1 H37RV
M. smegmatis ATCC607 = experiment: In-vitro anti-bacterial activity against strain M. smegmatis ATCC607; settings: for IC90 MSM 1 ATCC607: 90% inhibitory concentration for bacterial growth, 48 hours, 37° C., Alamar Blue fluorescence; for IC90: Mycolicibacterium smegmatis, ATCC607, 48 h, read-out: IC90 MSM 1 ATCC607, 90% inhibitory concentration for bacterial growth, 37° C., Alamar Blue fluorescence
Experimental: Flat-bottom, sterile 96-well plastic microtiter plates were filled with 180 μl of sterile deionized water, supplemented with 0.25% BSA. Subsequently, stock solutions (7.8× final test concentration) of compounds were added in 45 μl volumes to a series of duplicate wells in column 2 so as to allow evaluation of their effects on bacterial growth. Serial five-fold dilutions (45 μl in 180 μl) were made directly in the microtiter plates from column 2 to 11 using a customised robot system (Zymark Corp., Hopkinton, Mass.). Pipette tips were changed after every 3 dilutions to minimize pipetting errors with high hydrophobic compounds. Untreated control samples with (column 1) and without (column 12) inoculum were included in each microtiter plate. Approximately 250 CFU per well of bacteria inoculum, in a volume of 100 μl in 2.8× Mueller-Hinton broth medium, was added to the rows A to H, except column 12. The same volume of broth medium without inoculum was added to column 12 in row A to H. The cultures were incubated at 37° C. for 48 hours in a humidified 5% CO2 atmosphere (incubator with open air valve and continuous ventilation). At the end of incubation, two days after inoculation, the bacterial growth was quantitated fluorometrically. Therefore Alamar Blue (10×) was added to all wells in a volume of 20 μl and plates were incubated for another 2 hours at 50° C.
The fluorescence was read in a computer-controlled fluorometer (Cytofluor, Biosearch) at an excitation wavelength of 530 nm and an emission wavelength of 590 nm (gain 30). The percentage growth inhibition achieved by the compounds was calculated according to standard methods and expressed as IC90 (μg/ml) which defines the 90% inhibitory concentration for bacterial growth.

SMILES | IC90 STA 1 B29213 [1] [µg/mL] | IC90 SPN 1 6305 [2] [µg/mL] | IC90 [3] [µg/mL] | IC90 MSM 1 ATCC607 (M. smegmatis ATCC607) [µg/mL] | IC90 [1] [µg/mL] | IC90 [2] [µg/mL] | IC90 (M. smegmatis ATCC607) [µg/mL] | IC90 MTB 1 H37RV [3] [µg/mL] | melting point [°C]
COc1nc2ccc(Br)cc2cc1C(c1ccccc1)C(O)(CCCCN1CC2CC1CN2Cc1ccccc1)c1ccc2ccccc2c1 (centres unmarked) [Compound 23] | 2.3 (≈ 3.16 µM) | 0.2 (≈ 0.275 µM) | 57.7 (≈ 79.4 µM) | 0.5 (≈ 0.688 µM) |  |  |  |  | 
COc1nc2ccc(Br)cc2cc1C(c1ccccc1)C(O)(CCCCN(C)C(=N)N)c1ccccc1 (single isomer, unassigned) [Compound 1] |  |  | 4 (≈ 7.12 µM) |  | 2 (≈ 3.56 µM) | 2.2 (≈ 3.92 µM) | 1.8 (≈ 3.21 µM) |  | 
COc1nc2ccc(Br)cc2cc1C(c1ccccc1)C(O)(CCCCN(C)C(=N)N)c1ccccc1 (single isomer, unassigned) [Compound 2] | 1.8 (≈ 3.21 µM) | 2.2 (≈ 3.92 µM) |  | 1.8 (≈ 3.21 µM) |  |  |  | 2.5 (≈ 4.45 µM) | 
COc1nc2ccc(Br)cc2cc1C(c1ccccc1)C(O)(CCCCN(C)CCN(C)C)c1ccccc1 (single isomer, unassigned) [Compound 51] |  |  |  |  | 9.4 (≈ 15.9 µM) | 9.4 (≈ 15.9 µM) | 9.4 (≈ 15.9 µM) |  | 
COc1nc2ccc(Br)cc2cc1C(c1ccccc1)C(O)(CCCCNC1CC2CCC1C2)c1ccc2ccccc2c1 (centres unmarked) [Compound 40] | 1.6 (≈ 2.46 µM) | 0.5 (≈ 0.77 µM) |  | 0.4 (≈ 0.616 µM) |  |  |  |  | 
COc1nc2ccc(Br)cc2cc1C(c1ccccc1)C(O)(CCCCN1CCCNCC1)c1ccc2ccccc2c1 (single isomer, unassigned) [Compound 33] |  |  |  |  | 2 (≈ 3.13 µM) | 0.5 (≈ 0.783 µM) | 0.4 (≈ 0.626 µM) |  | 119
COc1nc2ccc(Br)cc2cc1C(c1ccccc1)C(O)(CCCCCN1CCCN(C)CC1)c1ccc2ccccc2c1 (single isomer, unassigned) [Compound 54] |  | 2.1 (≈ 3.15 µM) |  |  | 2.1 (≈ 3.15 µM) |  | 2.1 (≈ 3.15 µM) |  | 
COc1nc2ccc(Br)cc2cc1C(c1ccccc1)C(O)(CCCCN1CCCN(C)CC1)c1ccc2ccccc2c1 (centres unmarked) [Compound 34b] |  | 2.1 (≈ 3.22 µM) |  | 2.1 (≈ 3.22 µM) | 2.1 (≈ 3.22 µM) |  |  |  | 
COc1nc2ccccc2cc1C(c1ccccc1)C(O)(CCCCN1CC2CC1CN2)c1ccc2ccccc2c1 (single isomer, unassigned) [Compound 19] | 1.8 (≈ 3.23 µM) | 2.2 (≈ 3.94 µM) |  | 1.6 (≈ 2.87 µM) |  |  |  |  | 
COc1nc2ccc(Br)cc2cc1C(c1ccccc1)C(O)(CCCCN1CCC1)c1ccccc1 (single isomer, unassigned) [Compound 41] | 1.7 (≈ 3.12 µM) | 1.7 (≈ 3.12 µM) |  |  |  |  | 1.7 (≈ 3.12 µM) |  | 
COc1nc2ccc(Br)cc2cc1C(c1ccccc1)C(O)(CCCCN1CC2CC1CN2Cc1ccccc1)c1ccc2ccccc2c1 (centres unmarked) [Compound 22] | 9.2 (≈ 12.7 µM) | 2.9 (≈ 3.99 µM) |  |  |  |  | 0.6 (≈ 0.826 µM) |  | 
COc1nc2ccc(Br)cc2cc1C(c1ccc(Cl)cc1)C(O)(CCCCN1CC2CC1CN2Cc1ccccc1)c1ccc2ccccc2c1 (single isomer, unassigned) [Compound 36] | 53.9 (≈ 70.8 µM) |  |  |  |  | 0.9 (≈ 1.18 µM) | 2.7 (≈ 3.55 µM) |  | 
COc1nc2ccc(Br)cc2cc1C(c1ccccc1)C(O)(CCCCN1CCN(C2CCN(Cc3ccccc3)C2)CC1)c1ccc2ccccc2c1 (single isomer, unassigned) [Compound 30] | 2.5 (≈ 3.19 µM) | 2.5 (≈ 3.19 µM) |  | 2.5 (≈ 3.19 µM) |  |  |  |  | 
COc1nc2ccc(Br)cc2cc1C(c1ccccc1)C(O)(CCCCCN1CCCN(C)CC1)c1ccc2ccccc2c1 (single isomer, unassigned) [Compound 55] | 2.1 (≈ 3.15 µM) | 0.4 (≈ 0.6 µM) |  | 2.1 (≈ 3.15 µM) |  |  |  |  | 
COc1nc2ccc(Br)cc2cc1C(c1ccccc1)C(O)(CCCCN1CC2CC1CN2Cc1ccccc1)c1ccc2ccccc2c1 (single isomer, unassigned) [Compound 20] | 11.5 (≈ 15.8 µM) |  |  | 2.3 (≈ 3.16 µM) |  | 0.6 (≈ 0.826 µM) |  |  | 
COc1nc2ccc(Br)cc2cc1C(c1ccccc1)C(O)(CCCCN1CC2CC1CN2Cc1ccccc1)CCCc1ccccc1 (single isomer, unassigned) [Compound 14] |  |  |  |  | 11.4 (≈ 15.9 µM) | 2.6 (≈ 3.62 µM) | 3.6 (≈ 5.01 µM) |  | 
COc1nc2ccc(Br)cc2cc1C(c1ccccc1)C(O)(CCCCN1CCC(N2CCCCC2)CC1)c1ccc2ccccc2c1 (single isomer, unassigned) [Compound 29] | 5.0 (≈ 7.07 µM) | 0.8 (≈ 1.13 µM) |  | 2.2 (≈ 3.11 µM) |  |  |  |  | 177
CN1CCCN(CCCCC(O)(c2ccc3ccccc3c2)C(c2ccccc2)c2cc3cc(Br)ccc3[nH]c2=O)CC1 (single isomer, unassigned) [Compound 50] | 10.1 (≈ 15.8 µM) |  |  | 2.3 (≈ 3.6 µM) |  | 4.5 (≈ 7.05 µM) |  |  | 210
COc1nc2ccc(Br)cc2cc1C(c1ccccc1)C(O)(CCCCN1CCC(N2CCCCC2)CC1)CCc1ccccc1 (single isomer, unassigned) [Compound 11] | 10.9 (≈ 15.9 µM) | 10.9 (≈ 15.9 µM) |  | 12.2 (≈ 17.8 µM) |  |  |  |  | 164
COc1nc2ccc(Br)cc2cc1C(c1ccccc1)C(O)(CCCCN1CC2CC1CN2Cc1ccccc1)CCc1ccccc1 (single isomer, unassigned) [Compound 13] | 2.2 (≈ 3.12 µM) | 2.5 (≈ 3.55 µM) |  | 5.6 (≈ 7.95 µM) |  |  |  |  | 
COc1nc2ccc(Br)cc2cc1C(c1ccccc1)C(O)(CCCCN1CC2CC1CN2Cc1ccccc1)CCCc1ccccc1 (single isomer, unassigned) [Compound 15] | 11.4 (≈ 15.9 µM) | 2.6 (≈ 3.62 µM) |  | 4.0 (≈ 5.56 µM) |  |  |  |  | 
COc1nc2ccc(Br)cc2cc1C(c1ccccc1)C(O)(CCCCN1CCN(C2CCN(Cc3ccccc3)C2)CC1)c1ccc2ccccc2c1 (single isomer, unassigned) [Compound 31] | 12.4 (≈ 15.8 µM) | 15.6 (≈ 19.9 µM) |  | 4.4 (≈ 5.61 µM) |  |  |  |  | 
COc1nc2ccc(Br)cc2cc1C(c1ccccc1)C(O)(CCCCN1CCN(C(C)=O)CC1)c1ccccc1 (single isomer, unassigned) [Compound 3] |  |  |  |  | 61.7 (≈ 100 µM) | 9.8 (≈ 15.9 µM) | 4.9 (≈ 7.95 µM) |  | 
COc1nc2ccccc2cc1C(c1ccccc1)C(O)(CCCCN1CC2CC1CN2)c1ccc2ccccc2c1 (single isomer, unassigned) [Compound 18] |  |  |  |  | 1.8 (≈ 3.23 µM) | 1.8 (≈ 3.23 µM) | 1.8 (≈ 3.23 µM) |  | 
COc1nc2ccc(Br)cc2cc1C(c1ccccc1)C(O)(CCCCN1CC2CC1CN2Cc1ccccc1)c1ccccc1 (single isomer, unassigned) [Compound 49] | 2.1 (≈ 3.1 µM) | 0.3 (≈ 0.443 µM) |  | 2.1 (≈ 3.1 µM) |  |  |  |  | 
COc1nc2ccc(Br)cc2cc1C(c1ccccc1)C(O)(CCCCN1CC2CC1CN2CCc1ccccc1)c1ccc2ccccc2c1 (single isomer, unassigned) [Compound 25] | 2.3 (≈ 3.1 µM) | 0.5 (≈ 0.675 µM) |  | 1.7 (≈ 2.29 µM) |  |  |  |  | 137
COc1nc2ccc(Br)cc2cc1C(c1ccccc1)C(O)(CCCCNC1CC2CCC1C2)c1ccc2ccccc2c1 (single isomer, unassigned) [Compound 38] |  |  |  |  | 10.3 (≈ 15.9 µM) | 2.6 (≈ 4 µM) | 2.1 (≈ 3.23 µM) |  | 
